Test results from patent US20230398140A1, “OCULAR-TENSION-INCREASING AGENT CAPABLE OF BEING DEPRIVED OF DRUG ACTIVITY BY TEMPERATURE CONTROL” (UNIVERSITY OF YAMANASHI, priority 2020, published 2023).

Test system: White house rabbits
Settings: rabbit, in vivo
Method: White house rabbits (2 to 3.5 kg) were positioned with a positioner and ocular tension was measured by a handy tonometer (Icare TONOVET Plus, M.E, Technica) while they were kept awake, and then anesthetized with ketamine and xylazine (ketamine hydrochloride 60 mg/kg; Sankyo, Tokyo, Japan and xylazine 10 mg/kg; Bayer, Munich, Germany). Ocular tension was again measured, and eyeballs were observed by a microscope under anesthesia. Thereafter, 100 μL of 1 wt % POxMix was injected into the anterior chamber of just one of the eyes of each rabbit. Microscopic observation and tonometry were carried out immediately after injection, 30 minutes and 24 hours after anesthesia.

poly(2-propyl-2-oxazoline) [POx]
cloudiness of eyeball after 24 hours: deposited on the iris and lens surface with the passage of time and remained as a white sediment
cloudiness of eyeball immediately after administration: became cloudy
